Like-named read-outs stand apart in the source and are kept apart here.
Experiments:
[1] = target: T1, MET (wt) GST-tagged recombinant human MET kinase domain (Homo sapiens, UniProt P08581); test: c-Met Enzyme Assay, wild type (LanthaScreen Eu Kinase Binding); conditions: averaged IC50; MET (wt) 10 nM; 60-minute incubation at 22° C.; read-out: SigChem WT IC50
T1 construct: GST-tagged recombinant human MET kinase domain; purchased Signal Chem
Procedure: (§1) The affinity of compound binding to wild type and mutant human MET kinases was measured using Invitrogen's LanthaScreen™ Eu Kinase Binding technology. Briefly, GST-tagged recombinant human MET kinase domain from Signal Chem (see Table 8 below for concentration in assay) was incubated with 50 nM Alexa-Fluor® Tracer 236 (Invitrogen Cat No. PR9078A) and 2 nM Europium-anti-GST (Invitrogen Cat. No. A15116) along with test compound in a buffer consisting of 25 mM HEPES, pH 7.4, 10 mM MgCl2, 0.01% Triton X-100, 1mM DTT, and 2% DMSO. Compounds were typically prepared in a three-fold serial dilution in DMSO and added to the assay to give the appropriate final concentration. After a 60-minute incubation at 22° C., the reaction was measured using a PerkinElmer EnVision multimode plate reader via TR-FRET dual wavelength detection, and the percent of control (POC) calculated using a ratiometric emission factor. […] The POC values were fit to a 4 parameter logistic curve and the IC50 value is point where the curve crosses 50 POC.

human MET kinase D1228N = target: T2, human MET kinase D1228N (Homo sapiens, UniProt P08581, D1228N); test: c-Met Enzyme Assay, D1228N mutant; assay type: binding; conditions: averaged IC50; D1228N 2 nM; 60-minute incubation at 22° C.; read-out: D1228 N IC50
T2 construct: GST-tagged recombinant human MET kinase domain; purchased Signal Chem
Procedure: as §1

MDR1 (P-gp) = target: T3, MDR1 (P-gp) (Homo sapiens, UniProt P08183); test: MDR1 LLC-PK1 permeability assay; assay type: in vitro ADME; conditions: pig, MDR1 transfected LLC-PK1 cells; for Papp at 2 h, 1 μM: permeability coefficient (Papp)
T3 construct: expressed in transfected cells; host or cells: LLC-PK1
Procedure: MDR1 transfected LLC-PK1 cells were cultured and plated according to manufacturer's recommendations with the exception that the passage media contained only 2% fetal bovine serum to extend passage time out to seven days.
Both positive and negative controls were used to assess functionality of P-gp efflux in the assay. Stock solutions for assay controls and the test article were prepared in DMSO for final test concentrations of 10 and 1 μM, respectively. Final organic concentration in the assay was 1%. All dosing solutions contained 10 μM lucifer yellow to monitor LLC-PK1 cell monolayer integrity.
For the apical to basolateral determination (A to B), 75 μL of the test article in transport buffer were added to the apical side of the individual transwells and 250 μL of basolateral media, without compound or lucifer yellow, were added to each well. For the basolateral to apical determination (B to A), 250 μL of test article in transport buffer were added to each well and 75 μL transport buffer, without compound or lucifer yellow, were added to each transwell. All tests were performed in triplicate, and each compound was tested for both apical to basolateral and basolateral to apical transport. The plates were incubated for 2 hours on a Lab-Line Instruments Titer Orbital Shaker (VWR, West Chester, Pa.) at 50 rpm and 37° C. with 5% CO2. All culture plates were removed from the incubator and 50 μL of media were removed from the apical and basolateral portion of each well and added to 150 μL of 1 μM labetalol in 2:1 acetonitrile (acetonitrile): H2O, v/v.
The plates were read using a Molecular Devices (Sunnyvale, Calif.) Gemini Fluorometer to evaluate the lucifer yellow concentrations at excitation/emission wavelengths of 425/535 nm. These values were accepted when found to be below 2% for apical to basolateral and 5% basolateral to apical flux across the MDR1-transfected LLC-PK1-transfected cell monolayers. The plates were sealed and the contents of each well analyzed by LC-MS/MS. The compound concentrations were determined from the ratio of the peak areas of the compound to the internal standard (labetalol) in comparison to the dosing solution.
The LC-MS/MS system was comprised of an HTS-PAL autosampler (Leap Technologies, Carrboro, N.C.), an HP1200 HPLC (Agilent, Palo Alto, Calif.), and a MDS Sciex 4000 Q Trap system (Applied Biosystems, Foster City, Calif.). […] The total run time, including re-equilibration, for a single injection was 1.2 minutes. Mass spectrometric detection of the analytes was accomplished using the ion spray positive mode. Analyte responses were measured by multiple reaction monitoring (MRM) of transitions unique to each compound (the protonated precursor ion and selected product ions for each test article and m/z 329 to m/z 162 for labetalol, the internal standard).
The permeability coefficient (Papp) is calculated from the following equation: […]
where Cd, V, t and C0 are the detected concentration (μM), the volume on the dosing side (mL), the incubation time (s) and the initial dosing concentration (μM), respectively. The calculations for Papp were made for each replicate and then averaged. In this assay, a compound is defined has having high permeability if the permeability is greater than 8×10^−6 cm/sec, a compound is defined has having medium permeability if the permeability is from 2×10^−6 cm/sec to 8×10^−6 cm/sec, and a compound is defined has having low permeability if the permeability is less than 2×10^−6 cm/sec.
An efflux ratio was calculated from the mean apical to basolateral (A-B) Papp data and basolateral to apical (B-A) Papp data:
Efflux ratio=Papp(B−A)/Papp(A−B)

[2] = LLC-PK1, Papp(B−A)/Papp(A−B), test article 1 μM, 2 hours, 37° C., read-out: Efflux ratio
[3] = LLC-PK1, efflux ratio = Papp(B-A)/Papp(A-B), read-out: MDR1 Pe Ratio

T2 sequence (P08581 1078-1345 D1228N): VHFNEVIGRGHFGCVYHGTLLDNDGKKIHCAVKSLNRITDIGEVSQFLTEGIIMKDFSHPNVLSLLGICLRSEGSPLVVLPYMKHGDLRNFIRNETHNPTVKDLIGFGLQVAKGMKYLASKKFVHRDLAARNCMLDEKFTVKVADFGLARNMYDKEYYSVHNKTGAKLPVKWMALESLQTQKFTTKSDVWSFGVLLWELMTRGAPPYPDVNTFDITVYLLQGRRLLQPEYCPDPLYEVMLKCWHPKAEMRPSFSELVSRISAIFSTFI
T3 sequence (P08183 whole entry): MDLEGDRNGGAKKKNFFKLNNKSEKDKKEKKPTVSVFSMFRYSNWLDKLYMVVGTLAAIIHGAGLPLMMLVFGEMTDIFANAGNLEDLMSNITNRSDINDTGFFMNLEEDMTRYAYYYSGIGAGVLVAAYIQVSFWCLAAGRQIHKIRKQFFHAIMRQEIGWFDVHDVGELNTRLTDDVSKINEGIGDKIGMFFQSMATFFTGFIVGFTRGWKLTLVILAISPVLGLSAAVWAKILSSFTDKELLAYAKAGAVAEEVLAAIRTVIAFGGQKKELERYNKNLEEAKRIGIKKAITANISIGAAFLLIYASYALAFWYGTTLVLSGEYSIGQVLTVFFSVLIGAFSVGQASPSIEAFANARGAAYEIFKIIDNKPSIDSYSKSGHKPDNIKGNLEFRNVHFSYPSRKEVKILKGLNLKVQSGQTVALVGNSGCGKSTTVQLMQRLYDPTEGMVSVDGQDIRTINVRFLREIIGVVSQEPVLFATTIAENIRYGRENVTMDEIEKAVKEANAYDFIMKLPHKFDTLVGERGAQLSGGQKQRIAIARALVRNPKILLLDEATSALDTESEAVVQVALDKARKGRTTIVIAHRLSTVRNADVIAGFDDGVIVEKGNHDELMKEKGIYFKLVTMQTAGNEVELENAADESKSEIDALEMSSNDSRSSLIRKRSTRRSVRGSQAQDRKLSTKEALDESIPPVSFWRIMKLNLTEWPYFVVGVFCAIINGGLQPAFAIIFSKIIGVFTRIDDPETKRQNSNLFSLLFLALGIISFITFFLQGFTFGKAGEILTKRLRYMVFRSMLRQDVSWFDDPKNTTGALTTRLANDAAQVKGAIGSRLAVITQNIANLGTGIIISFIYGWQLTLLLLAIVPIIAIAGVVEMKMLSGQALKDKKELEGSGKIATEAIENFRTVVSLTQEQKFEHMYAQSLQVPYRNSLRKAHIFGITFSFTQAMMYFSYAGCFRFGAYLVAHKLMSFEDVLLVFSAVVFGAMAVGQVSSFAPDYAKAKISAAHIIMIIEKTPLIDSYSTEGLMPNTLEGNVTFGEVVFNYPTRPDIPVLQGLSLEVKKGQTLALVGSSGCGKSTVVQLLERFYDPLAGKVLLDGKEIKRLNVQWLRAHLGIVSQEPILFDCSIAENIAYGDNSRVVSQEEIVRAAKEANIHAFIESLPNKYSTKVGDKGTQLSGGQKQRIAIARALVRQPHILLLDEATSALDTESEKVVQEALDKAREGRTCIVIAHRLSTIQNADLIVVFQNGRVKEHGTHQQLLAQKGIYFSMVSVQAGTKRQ
T1 sequence (P08581 1078-1345 limits assumed): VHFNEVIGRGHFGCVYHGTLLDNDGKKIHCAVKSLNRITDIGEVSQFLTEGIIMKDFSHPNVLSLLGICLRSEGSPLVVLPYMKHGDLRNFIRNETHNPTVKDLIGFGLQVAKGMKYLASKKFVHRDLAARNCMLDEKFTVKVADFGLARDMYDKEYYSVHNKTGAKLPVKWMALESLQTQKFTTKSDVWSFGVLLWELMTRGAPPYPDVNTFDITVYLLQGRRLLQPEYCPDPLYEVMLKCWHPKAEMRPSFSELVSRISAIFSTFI

| IC50 [1] [µM] | IC50 (human MET kinase D1228N) [µM] | efflux ratio at 2 h, 1 μM (MDR1 (P-gp); [2]) | efflux ratio at 2 h, 1 μM (MDR1 (P-gp); [3]) | Papp at 2 h, 1 μM (MDR1 (P-gp)) [nm/s] | SMILES |
| --- | --- | --- | --- | --- | --- |
| 0.041 | 0.0627 | 3.5 | 2 | 110 | COc1ccc(-c2cn(C(C)C)cc(C(=O)Nc3ccc(Oc4ccnc5cc(OC)c(OC)cc45)cn3)c2=O)c(F)c1 [Example 31, N-(5-((6,7-dimethoxyquinolin-4yl)oxy)pyridin-2-yl)-5-(2-fluoro-4-methoxyphenyl)-1-isopropyl-4-oxo-1,4-dihydropyridine-3-carboxamide] |
| 0.003 | 0.0174 |  | 7.1 | 140 | COc1cc2nccc(Oc3ccc(NC(=O)c4cn(C(C)C)cc(-c5ccc(F)cc5OC)c4=O)nc3)c2cc1OC [Example 32, N-(5-((6,7-dimethoxyquinolin-4yl)oxy)pyridin-2-yl)-5-(4-fluoro-2-methoxyphenyl)-1-isopropyl-4-oxo-1,4-dihydropyridine-3-carboxamide] |
| 0.0039 | 0.0133 | 3.5 | 2 | 100 | COc1ccc2nccc(Oc3ccc(NC(=O)c4cn(C(C)C)c(C)c(-c5ccc(F)cc5)c4=O)nc3)c2c1 [Example 33, 5-(4-fluorophenyl)-1-isopropyl-N-(5-((6-methoxyquinolin-4-yl)oxy)pyridin-2-yl)-6-methyl-4-oxo-1,4-dihydropyridine-3-carboxamide] |
| 0.004 | 0.0072 |  | 5.3 | < 10 | COc1cc2nccc(Oc3ccc(NC(=O)c4cn(CCC(C)C)cc(-c5ccc(F)cc5)c4=O)nc3)c2cc1OC [Example 34, N-(5-((6,7-dimethoxyquinolin-4yl)oxy)pyridin-2-yl)-5-(4-fluorophenyl)-1-isopentyl-4-oxo-1,4-dihydropyridine-3-carboxamide] |
| 0.0138 | 0.0162 | 3.5 |  | < 10 | COc1cc2nccc(Oc3ccc(NC(=O)c4cn(CCC(C)C)cc(-c5ccc(F)c(F)c5)c4=O)nc3)c2cc1OC [Example 35, 5-(3,4-difluorophenyl)-N-(5-((6,7-dimethoxyquinolin-4yl)oxy)pyridin-2-yl)-1-isopentyl-4-oxo-1,4-dihydropyridine-3-carboxamide] |
| 0.0024 | 0.0048 |  | 4.3 | 10 | COc1cc2nccc(Oc3ccc(NC(=O)c4cn(CCC(C)C)cc(-c5ccc(F)cc5F)c4=O)nc3)c2cc1OC [Example 36, 5-(2,4-difluorophenyl)-N-(5-((6,7-dimethoxyquinolin-4yl)oxy)pyridin-2-yl)-1-isopentyl-4-oxo-1,4-dihydropyridine-3-carboxamide] |
| 0.01 | 0.0168 |  | 13 | < 10 | COc1cc2nccc(Oc3ccc(NC(=O)c4cn(CCC(C)C)cc(-c5ccc(Cl)cc5)c4=O)nc3)c2cc1OC [Example 37] |
| 0.0294 | 0.179 | 3.5 | 0.9 | 70 | CCn1cc(C(=O)Nc2ccc(Oc3ccnc4ccc(OC)cc34)cn2)c(=O)c(-c2ccc(F)cc2)c1 [Example 39, 1-ethyl-5-(4-fluorophenyl)-N-(5-((6-methoxyquinolin-4-yl)oxy)pyridin-2-yl)-4-oxo-1,4-dihydropyridine-3-carboxamide] |
| 0.117 | 0.646 | 3.5 | 2.5 | 70 | COc1ccc2nccc(Oc3ccc(NC(=O)c4cn(C)cc(-c5ccc(F)cc5)c4=O)nc3)c2c1 [Example 41, 5-(4-fluorophenyl)-N-(5-((6-methoxyquinolin-4yl)oxy)pyridin-2-yl)-1-methyl-4-oxo-1,4-dihydropyridine-3-carboxamide] |
| 0.0032 | 0.007 |  | 12 |  | COc1cc2nccc(Oc3ccc(NC(=O)c4cn(CCN(C)C)cc(-c5ccc(Cl)cc5)c4=O)nc3)c2cc1OC [Example 42] |
| 0.0014 | 0.0027 |  | 13 |  | COc1cc2nccc(Oc3ccc(NC(=O)c4cn(CCN(C)C)cc(-c5ccc(F)c(F)c5)c4=O)nc3)c2cc1OC [Example 43, 5-(3,4-difluorophenyl)-N-(5-((6,7-dimethoxyquinolin-4-yl)oxy)pyridin-2-yl)-1-] |
| 0.0022 | 0.0032 |  | 11 | 20 | COc1cc2nccc(Oc3ccc(NC(=O)c4cn(CCN(C)C)cc(-c5ccc(F)cc5F)c4=O)nc3)c2cc1OC [Example 44, 5-(2,4-difluorophenyl)-N-(5-((6,7-dimethoxyquinolin-4-yl)oxy)pyridin-2-yl)-1-(2-(dimethylamino)ethyl)-4-oxo-1,4-dihydropyridine-3-carboxamide] |
| 0.0044 | 0.0134 |  | 16 | 50 | COc1cc2nccc(Oc3ccc(NC(=O)c4cn(C)c(C(C)C)c(-c5ccc(F)cc5)c4=O)nc3)c2cc1OC [Example 45, N-(5-((6,7-dimethoxyquinolin-4-yl)oxy)pyridin-2-yl)-5-(4-fluorophenyl)-6-isopropyl-1-methyl-4-oxo-1,4-dihydropyridine-3-carboxamide] |
| 0.003 | 0.0054 |  | 13 | 20 | COc1cc2nccc(Oc3ccc(NC(=O)c4cn(CCN(C)C)cc(-c5ccc(F)cc5)c4=O)nc3)c2cc1OC [Example 46] |
| 0.0102 | 0.0297 |  | 9.3 |  | COc1ccc2nccc(Oc3ccc(NC(=O)c4cn(CCN(C)C)cc(-c5ccc(F)cc5)c4=O)nc3)c2c1 [Example 47] |
| 0.0068 | 0.0146 | 3.5 | 1.6 | 150 | COc1cc2c(Oc3ccc(NC(=O)c4cn(C(C)C)c(C)c(-c5ccc(F)cc5)c4=O)nc3)ccnc2cc1F [Example 48, N-(5-((7-fluoro-6-methoxyquinolin-4yl)oxy)pyridin-2-yl)-5-(4-fluorophenyl)-1-isopropyl-6-methyl-4-oxo-1,4-dihydropyridine-3-carboxamide] |
| 0.027 | 0.13 | 3.5 | 0.99 | 40 | COc1cc2c(Oc3ccc(NC(=O)c4cn(C(C)C)cc(-c5ccc(F)cc5)c4=O)nc3)ccnc2cc1F [Example 49, N-(5-((7-fluoro-6-methoxyquinolin-4yl)oxy)pyridin-2-yl)-5-(4-fluorophenyl)-1-isopropyl-4-oxo-1,4-dihydropyridine-3-carboxamide] |

Reference: patent US20200216416A1, “QUINOLINE COMPOUNDS AS INHIBITORS OF TAM AND MET KINASES” (Array BioPharma Inc., priority 2019, published 2020)
